Test results reported in patent US20160243223A1, “METHODS FOR TREATING CANCERS COMPRISING K-RAS MUTATIONS” (OncoMed Pharmaceuticals, Inc., priority 2009, published 2016).

B1: 21M18 H7L2: humanized form of the murine 21M18 antibody; anti-human DLL4 antibody (antibody, V domains shown)
VH: QVQLVQSGAEVKKPGASVKISCKASGYSFTAYYIHWVKQAPGQGLEWIGYISSYNGATNYNQKFKGRVTFTTDTSTSTAYMELRSLRSDDTAVYYCARDYDYDVGMDYWGQGTLVTVSS
VL: DIVMTQSPDSLAVSLGERATISCRASESVDNYGISFMKWFQQKPGQPPKLLIYAASNQGSGVPDRFSGSGSGTDFTLTISSLQAEDVAVYYCQQSKEVPWTFGGGTKVEIK

Key:
[1] = tested on: C9 colon tumor; test: C9 colon tumor recurrence xenograft model; assay type: in vivo, NOD/SCID mice; settings: treatment from 2 days after injection; antibody 10 mg/kg twice a week, irinotecan […] once a week, intraperitoneally; FIG. 4
Description: Starting 2 days after injection, mice were treated with irinotecan alone (Δ) or anti-human DLL4 antibody (21M18 […]) plus irinotecan (▾). Treatment in both groups was discontinued on the indicated day and tumor growth was monitored for an additional period of time. […] Both antibodies and chemotherapeutic agents were administered intraperitoneally. Tumor growth was measured with electronic calipers at the indicated time points.

[2] = tested on: PN8 pancreatic tumor; test: PN8 pancreatic tumor recurrence xenograft model after gemcitabine; assay type: in vivo, NOD/SCID mice; settings: after gemcitabine 100 mg/kg once a week for 4 weeks; antibodies 10 mg/kg once a week from day 53; vs control antibody; FIG. 5
Description: The PN8 pancreatic tumor was determined to have a K-ras mutation, a glycine to aspartic acid mutation at codon 12, that is a known activating mutation. Anti-DLL4 antibodies were tested for efficacy in this xenograft tumor model. Dissociated PN8 pancreatic tumor cells (10,000 cells) were injected subcutaneously into the flanks of 6-8 week old NOD/SCID mice. Tumors were allowed to grow for 28 days until they reached an average volume of 173 mm^3. […] On day 53, the gemcitabine treatments were stopped and antibody treatments initiated. Mice were treated with control antibody ([…]), anti-mouse DLL4 antibody (21R30) (▾), anti-human DLL4 antibody (21M18 H7L2) (▴), or a combination of anti-mouse DLL4 antibody and anti-human DLL4 antibody (21R30+21M18 H7L2) (□). […] Both antibodies and chemotherapeutic agents were administered intraperitoneally. Tumor growth was measured with electronic calipers at the indicated time points.

Row | Molecule | tumor growth after cessation of treatment [1] | tumor recurrence after chemotherapy [2]
1 | CCc1c2c(nc3ccc(OC(=O)N4CCC(N5CCCCC5)CC4)cc13)-c1cc3c(c(=O)n1C2)COC(=O)[C@]3(O)CC [Irinotecan, irinotecan] | tumor growth progressed | 
2 | B1 |  | more substantial effect in inhibiting and/or delaying tumor re-growth
